Source: PMC11300601, “Zurletrectinib is a next-generation TRK inhibitor with strong intracranial activity against NTRK fusion-positive tumours with on-target resistance to first-generation agents” (British Journal of Cancer, 2024)

Key:
[1] = tested on: IRC LMNA-NTRK1 TRKA G595R/G667C; assay: Proliferation, clonogenic and western blot assays, IRC cell line with TRKA G595R/G667C; assay type: cell-based; settings: human NTRK fusion-positive cell line with TRKA G595R/G667C compound mutation
Excerpt: (§1) NTRK fusion-positive colorectal cancer cell lines IRC, Kor1, and KM12 were utilized. The IRC and the KM12 cell lines were obtained from Dr. Bardelli and cultured according to the described protocols. The Kor1 cell line was obtained from Lee et al. and cultured on laminin pre-treated plates in RPMI media supplemented with 10% Fetal Bovine Serum (FBS). All cell lines were authenticated by STR and periodically screened for the presence of mycoplasma. For the mutant models, two human-derived colorectal cancer cell lines (IRC) and two mouse-derived glioma models (NLS) were used. […] Sequencing of the double mutant cell line was performed using MSK-IMPACT [25]. IRC primary cell lines were cultured with DMEM/F12 50:50 Mix (Corning) supplemented with 10% FBS. NLS Bcan-Ntrk1 Trka G598R and Bcan-Ntrk1 Trka G670C single mutants as well as double mutants NLS Bcan-Ntrk1 Trka G598R/G670A and NLS Bcan-Ntrk1 Trka G598R/G670C isogenic models were established using CRISPR/Cas9 to knock-in TRKA solvent-front and xDFG mutations into tumor cells derived from a Bcan-Ntrk1-driven glioma mouse model. Trka G598R is the mouse ortholog to human TRKA G595R while Trka G670A and Trka G670C are the mouse ortholog to human TRKA G667A and TRKA G667C, respectively. Mouse p53 ^−/^− Bcan-Ntrk1 glioma cells were plated on laminin-coated plates and cultured with Neurocult Stem Cell Basal Media with Proliferation Supplements (Stem Cell Technologies). Ba/F3 cell lines stably expressing WT and mutant versions (i.e. G595R, G667C/A, V573M, F589L, F633L, F617L, G623R/E, G639R, G696A/C, G709C, V608D/M) of human TRKA, TRKB or TRKC were generated using either lentiviral transduction or standard transfection methods by a contract research organization (Kyinno, Beijing, China).
(§2) CellTiter-Glo Cell Viability Assays (Promega) and crystal violet clonogenic assays were performed on primary NTRK fusion-positive colorectal cancer cell lines, mouse Ba/F3 cell lines and isogenic mouse glioma cell lines. […] Absorbance was read at 490 nm in accordance with Promega’s protocol. […]

[2] = Brain distribution in rats (plasma, brain, CSF by LC-MS/MS); assay type: in vivo, Male Sprague Dawley (SD) rats; settings: rat; for Brain concentration (ng/g ± SD) / Brain/plasma ratio (%) / CSF concentration (ng/mL ± SD) / CSF/plasma ratio (%) / Plasma concentration (ng/mL ± SD): 10 mg/kg PO single dose; for concentration at 0.5 h / concentration at 2 h / Kp at 0.5 h / Kp at 2 h: male, Sprague-Dawley, in vivo, po, 10 mg/kg
Procedure: All […] (PK) studies in rats were conducted according to protocols approved by the Animal Care and Use Committee at InnoCare pharmacology company in China. […] For the collection of plasma, brain tissue and cerebrospinal fluid (CSF), animals were euthanized with CO2 at 0.5 and 2 h post dosing and blood samples were in EDTA-treated microtubes. Brain tissues were homogenized and immediately flash frozen (−80 °C). Blood samples and CSF were spun at 2000 × g for 15 min at 4 °C, and plasma was removed and stored at −80 °C until liquid chromatography-tandem mass spectrometry (LC-MS/MS) analysis. The agents in rat plasma, brain homogenate or CSF samples were extracted and quantified by LC-MS/MS.

TRKA G667C = target: T1, TRKA G667C (Homo sapiens, UniProt P04629, G667C); assay: In vitro HTRF kinase assay, recombinant TRKA G667C; assay type: biochemical; settings: compared to TRKA G595R
T1 construct: purchased SignalChem Biotech Inc (Richmond, BC, Canada)
Procedure: Recombinant kinases were purchased from SignalChem Biotech Inc (Richmond, BC, Canada). In vitro kinase assays were performed following the optimization of the HTRF Kinase Assay (Cisbio). […] ATP concentrations ranged from 1 to 10 µM based on internal optimization.

[3] = tested on: Bcan-Ntrk1 Trka G598R/G670A; assay: Proliferation and clonogenic assays, mouse glioma cell line; assay type: cell-based
Excerpt: as §1
(§3) CellTiter-Glo Cell Viability Assays (Promega) and crystal violet clonogenic assays were performed on primary NTRK fusion-positive colorectal cancer cell lines, mouse Ba/F3 cell lines and isogenic mouse glioma cell lines. For the CellTiter-Glo assays, three biological replicates were performed, with each condition being assayed in triplicate determinations. Cells were seeded in a 96-well plate in the afternoon at optimal density. […] Plates were removed from the incubator 72 h later and CellTiter-Glo reagent was added. Absorbance was read at 490 nm in accordance with Promega’s protocol. Data is presented as a survival percentage on the y-axis (mean ± STDEV) normalized to the control DMSO-treated cells deemed 100% viable. Drug concentrations on the x-axis are represented as a base 10 logarithm (LOG). For the crystal violet assays, cells were seeded in a 24-well plate at optimal densities in the afternoon. […]

Bcan-Ntrk1 Trka G598R = assay: as above; assay type: cell-based
Excerpt: as §1, §3

[4] = tested on: IRC LMNA-NTRK1 TRKA G595R; assay: Proliferation, clonogenic and western blot assays, primary IRC cell line with TRKA G595R; assay type: cell-based; settings: primary human NTRK fusion-positive cell line with TRKA G595R
Excerpt: NTRK fusion-positive colorectal cancer cell lines IRC, Kor1, and KM12 were utilized. The IRC and the KM12 cell lines were obtained from Dr. Bardelli and cultured according to the described protocols. The Kor1 cell line was obtained from Lee et al. and cultured on laminin pre-treated plates in RPMI media supplemented with 10% Fetal Bovine Serum (FBS). All cell lines were authenticated by STR and periodically screened for the presence of mycoplasma. For the mutant models, two human-derived colorectal cancer cell lines (IRC) and two mouse-derived glioma models (NLS) were used. […] Sequencing of the double mutant cell line was performed using MSK-IMPACT [25]. IRC primary cell lines were cultured with DMEM/F12 50:50 Mix (Corning) supplemented with 10% FBS. NLS Bcan-Ntrk1 Trka G598R and Bcan-Ntrk1 Trka G670C single mutants as well as double mutants NLS Bcan-Ntrk1 Trka G598R/G670A and NLS Bcan-Ntrk1 Trka G598R/G670C isogenic models were established using CRISPR/Cas9 to knock-in TRKA solvent-front and xDFG mutations into tumor cells derived from a Bcan-Ntrk1-driven glioma mouse model. […]
as §2

Bcan-Ntrk1 Trka G670C = assay: Proliferation and clonogenic assays, mouse glioma cell line; assay type: cell-based
Excerpt: as §1
as §3, with “(LOG).” for “(LOG). For the crystal violet assays, cells were seeded in a 24-well plate at optimal densities in the afternoon.”
(§4) I n vi t r o kinase assay, crystal violet, and western blot quantifications
(§5) In vitro kinase assay quantification was performed using GraphPad Prism 9.

[5] = tested on: Bcan-Ntrk1 Trka G598R/G670C; assay: as above; assay type: cell-based
Excerpt: as §1
as §3, with “(LOG).” for “(LOG). For the crystal violet assays, cells were seeded in a 24-well plate at optimal densities in the afternoon.”
as §4, §5

[6] = Brain concentration (ng/g ± SD)
[7] = Plasma concentration (ng/mL ± SD)

T1 sequence (P04629 33-796 G667C): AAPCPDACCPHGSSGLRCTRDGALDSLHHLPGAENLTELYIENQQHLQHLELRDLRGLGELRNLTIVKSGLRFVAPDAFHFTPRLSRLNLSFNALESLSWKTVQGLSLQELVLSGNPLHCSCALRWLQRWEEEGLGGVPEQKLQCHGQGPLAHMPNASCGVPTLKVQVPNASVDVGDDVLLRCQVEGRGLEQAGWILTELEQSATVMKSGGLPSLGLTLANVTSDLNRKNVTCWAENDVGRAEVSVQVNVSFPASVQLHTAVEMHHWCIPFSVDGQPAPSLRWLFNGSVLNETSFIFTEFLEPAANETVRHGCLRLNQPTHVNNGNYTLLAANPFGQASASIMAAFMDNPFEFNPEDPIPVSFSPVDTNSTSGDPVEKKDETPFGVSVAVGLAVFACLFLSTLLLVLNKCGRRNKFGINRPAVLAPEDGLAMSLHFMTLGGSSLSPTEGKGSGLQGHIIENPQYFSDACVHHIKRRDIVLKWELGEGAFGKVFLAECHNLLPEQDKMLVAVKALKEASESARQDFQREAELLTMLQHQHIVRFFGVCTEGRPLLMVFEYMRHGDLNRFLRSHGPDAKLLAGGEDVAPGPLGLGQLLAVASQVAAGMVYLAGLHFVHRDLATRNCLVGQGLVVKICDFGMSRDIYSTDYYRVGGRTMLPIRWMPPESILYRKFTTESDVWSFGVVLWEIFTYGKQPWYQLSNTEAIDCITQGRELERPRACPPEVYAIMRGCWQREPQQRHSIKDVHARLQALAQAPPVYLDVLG

In the case of zurletrectinib, the “Inhibition of growth and TRKA-mediated signaling” value (shortened to “Inhibition”) [1] is reported as “not with the TRKA G595R/G667C compound mutation”, the “Brain concentration (ng/g ± SD)” value ([2]; 0.5 h) is reported as 44.5 ± 11.5 ng/g and the “Brain/plasma ratio (%)” value ([2]; 0.5 h) is reported as 7.17%. For the same molecule, the “CSF concentration (ng/mL ± SD)” value ([2]; 0.5 h) was 17.5 ± 6.00 ng/mL, the “CSF/plasma ratio (%)” value ([2]; 0.5 h) was 2.81% and the “Plasma concentration (ng/mL ± SD)” value ([2]; 0.5 h) was 616 ± 76.1 ng/mL. For the same molecule, the “Brain concentration (ng/g ± SD)” value ([2]; 2 h) was 96.9 ± 34.9 ng/g, the “Brain/plasma ratio (%)” value ([2]; 2 h) was 15.5% and the “CSF concentration (ng/mL ± SD)” value ([2]; 2 h) was 18.9 ± 5.91 ng/mL. The “CSF/plasma ratio (%)” value ([2]; 2 h) was 3.04%, the “Plasma concentration (ng/mL ± SD)” value ([2]; 2 h) was 610 ± 105 ng/mL and the “Potency against TRKA G667C xDFG mutant recombinant kinase” value (TRKA G667C) was “potency was significantly reduced”. The “Activity against mouse glioma cell line” value [3] was “highly active”, the “Activity against mouse glioma cell line” value (Bcan-Ntrk1 Trka G598R) was “highly active” and the “Inhibition” value [4] was “able to inhibit the growth and TRKA-mediated signaling”. The “Activity against mouse glioma cell line” value (Bcan-Ntrk1 Trka G670C) was “less so” and the “Activity against mouse glioma cell line” value [5] was “less so”.
With C[C@@H]1CCc2ncc(F)cc2[C@H]2CCCN2c2ccn3ncc(c3n2)C(=O)N1 [Selitrectinib, selitrectinib] the “Inhibition” value [1] was “not with the TRKA G595R/G667C compound mutation”, the concentration at 0.5 h [2, 6] was 93.9 ± 23.2 ng/g and the concentration at 2 h [2, 6] was 85.4 ± 35.4 ng/g. It also gave a Kp at 0.5 h ([2]; Brain/plasma ratio (%)) of 0.0403, a Kp at 2 h ([2]; Brain/plasma ratio (%)) of 0.0617 and a concentration at 0.5 h ([2]; CSF concentration (ng/mL ± SD)) of 11 ± 2.12 ng/mL. The concentration at 2 h ([2]; CSF concentration (ng/mL ± SD)) was 9.64 ± 6.02 ng/mL, the Kp at 0.5 h ([2]; CSF/plasma ratio (%)) was 0.00476 and the Kp at 2 h ([2]; CSF/plasma ratio (%)) was 0.00648. For the same molecule, the concentration at 0.5 h [2, 7] was 2320 ± 479 ng/mL, the concentration at 2 h [2, 7] was 1470 ± 854 ng/mL and the “Potency against TRKA G667C xDFG mutant recombinant kinase” value (TRKA G667C) was “potency was significantly reduced”. The “Activity against mouse glioma cell line” value [3] was “highly active”, the “Activity against mouse glioma cell line” value (Bcan-Ntrk1 Trka G598R) was “highly active” and the “Inhibition” value [4] was “able to inhibit the growth and TRKA-mediated signaling”. The “Activity against mouse glioma cell line” value (Bcan-Ntrk1 Trka G670C) was “less so” and the “Activity against mouse glioma cell line” value [5] was “less so”.
